PubChem BioAssay (NCI)
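Each compound was tested at five concentrations against cells in 96-well plates for 48 hours. GI50: concentration for 50% inhibition of growth. The concentration for full growth arrest is given as TGI.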

Columns and labels:
Experiment in all cases: NCI tumour cell line growth inhibition, 48 h
HOP-62 NSCLC = tested on: HOP-62 NSCLC
A498 renal = tested on: A498 renal
UACC-257 melanoma = tested on: UACC-257 melanoma
MDA-MB-231 breast = tested on: MDA-MB-231 breast
SNB-19 CNS = tested on: SNB-19 CNS
BT-549 breast = tested on: BT-549 breast
HOP-92 NSCLC = tested on: HOP-92 NSCLC
M14 melanoma = tested on: M14 melanoma
RXF 393 renal = tested on: RXF 393 renal
HCC-2998 colon = tested on: HCC-2998 colon

## O=C(O)C1C(=O)Oc2c(cccc2[N+](=O)[O-])C1O (stereo unspecified)
HOP-62 NSCLC
  TGI: > 100 µM
A498 renal
  TGI: > 100 µM
UACC-257 melanoma
  TGI: > 100 µM
MDA-MB-231 breast
  TGI: > 100 µM
SNB-19 CNS
  TGI: > 100 µM
BT-549 breast
  TGI: > 100 µM
HOP-92 NSCLC
  TGI: > 100 µM
M14 melanoma
  TGI: > 100 µM
RXF 393 renal
  TGI: > 100 µM
HCC-2998 colon
  TGI: > 100 µM

## C[C@@H](NC(=O)[C@@H](CC(=O)N1CCC(N2CCCCC2)CC1)N1C(=O)[C@@H](N2C(=O)OC[C@@H]2c2ccccc2)[C@H]1/C=C/c1cccc(Cl)c1)c1ccccc1
HOP-62 NSCLC
  GI50: 4.16 µM
  TGI: 18.4 µM
A498 renal
  GI50: 13.2 µM
  TGI: 27.7 µM
UACC-257 melanoma
  GI50: 1930 nM
  TGI: 3.84 µM
MDA-MB-231 breast
  GI50: 1900 nM
  TGI: 3.87 µM
SNB-19 CNS
  GI50: 2.77 µM
  TGI: 7.57 µM
BT-549 breast
  GI50: 5140 nM
  TGI: 18 µM
HOP-92 NSCLC
  GI50: 3640 nM
  TGI: 16.8 µM
M14 melanoma
  GI50: 1750 nM
  TGI: 3.37 µM
RXF 393 renal
  GI50: 2150 nM
  TGI: 3.98 µM
HCC-2998 colon
  GI50: 1990 nM
  TGI: 4.08 µM

## CCN(CC)CCCC(C)Nc1c2ccc(Cl)cc2nc2cc(OC)c(OC)cc12 (stereo unspecified)
A498 renal
  GI50: 7.07 µM
  TGI: 22.2 µM
UACC-257 melanoma
  GI50: 2230 nM
  TGI: 4.1 µM
MDA-MB-231 breast
  GI50: 1520 nM
  TGI: 3.97 µM
SNB-19 CNS
  GI50: 2.18 µM
  TGI: 8.98 µM
BT-549 breast
  GI50: 3870 nM
  TGI: 17.8 µM
HOP-92 NSCLC
  GI50: 2330 nM
  TGI: 8.34 µM
M14 melanoma
  GI50: 1880 nM
  TGI: 3.56 µM
RXF 393 renal
  GI50: 1300 nM
  TGI: 2.67 µM
HCC-2998 colon
  GI50: 1490 nM
  TGI: 3 µM

## Cc1cc([N+](=O)[O-])ccc1NS(=O)(=O)c1cc(Cl)ccc1Cl
HOP-62 NSCLC
  GI50: 3.21 µM
  TGI: 16.1 µM
A498 renal
  GI50: 1.43 µM
  TGI: 6.24 µM
UACC-257 melanoma
  GI50: 2020 nM
  TGI: 7.55 µM
MDA-MB-231 breast
  GI50: 3360 nM
  TGI: 16.2 µM
SNB-19 CNS
  GI50: 3.4 µM
  TGI: > 100 µM
BT-549 breast
  GI50: 2480 nM
  TGI: 14 µM
HOP-92 NSCLC
  GI50: 666 nM
  TGI: 3.81 µM
M14 melanoma
  GI50: 3660 nM
  TGI: 33.4 µM
RXF 393 renal
  GI50: 2980 nM
  TGI: 18.5 µM
HCC-2998 colon
  GI50: 4280 nM
  TGI: 18 µM

## COc1ccc(-c2cn(-c3cccc(C(=O)/C=C/c4ccc(O)c(OC)c4)c3)c(=O)[nH]2)cc1
HOP-62 NSCLC
  GI50: 8.85 µM
  TGI: > 100 µM
A498 renal
  GI50: 3.51 µM
  TGI: 13.1 µM
UACC-257 melanoma
  GI50: 8030 nM
  TGI: 39.3 µM
MDA-MB-231 breast
  GI50: 4060 nM
  TGI: > 54.3 µM
SNB-19 CNS
  GI50: 4.59 µM
  TGI: 43.9 µM
BT-549 breast
  GI50: 3320 nM
  TGI: 22.8 µM
HOP-92 NSCLC
  GI50: 2610 nM
  TGI: 20.5 µM
M14 melanoma
  GI50: 4480 nM
  TGI: 40.5 µM
RXF 393 renal
  GI50: 5850 nM
  TGI: 28.6 µM
HCC-2998 colon
  GI50: 2390 nM
  TGI: 6.14 µM

## N#Cc1ccc(C2C3=C(CCCC3=O)OC3=C2C(=O)c2ccccc2C3=O)cc1 (stereo unspecified)
HOP-62 NSCLC
  GI50: 1.95 µM
  TGI: 3.78 µM
A498 renal
  GI50: 13.9 µM
  TGI: 27 µM
UACC-257 melanoma
  GI50: 1550 nM
  TGI: 2.94 µM
MDA-MB-231 breast
  GI50: 447 nM
  TGI: 1.83 µM
SNB-19 CNS
  GI50: 4.35 µM
  TGI: 16 µM
BT-549 breast
  GI50: 1560 nM
  TGI: 2.92 µM
HOP-92 NSCLC
  GI50: 1270 nM
  TGI: 3.59 µM
M14 melanoma
  GI50: 1710 nM
  TGI: 3.37 µM
RXF 393 renal
  GI50: 1860 nM
  TGI: 3.59 µM
HCC-2998 colon
  GI50: 3000 nM
  TGI: 8.38 µM

## O=C(NCCN1CCC(O)CC1)c1cc2c(o1)C(=O)c1ccccc1C2=O
HOP-62 NSCLC
  GI50: 0.23 µM
  TGI: 0.51 µM
A498 renal
  GI50: 0.17 µM
  TGI: 0.34 µM
UACC-257 melanoma
  GI50: 176 nM
  TGI: 0.391 µM
MDA-MB-231 breast
  GI50: 377 nM
  TGI: 2.9 µM
SNB-19 CNS
  GI50: 0.27 µM
  TGI: 0.956 µM
BT-549 breast
  GI50: 170 nM
  TGI: 0.326 µM
HOP-92 NSCLC
  GI50: 1480 nM
  TGI: 3.19 µM
M14 melanoma
  GI50: 123 nM
  TGI: 0.268 µM
RXF 393 renal
  GI50: 1100 nM
  TGI: 2.32 µM
HCC-2998 colon
  GI50: 208 nM
  TGI: 0.451 µM

## N#C/C(=C\Nc1ccccn1)C(=O)c1ccco1
HOP-62 NSCLC
  TGI: > 100 µM
A498 renal
  TGI: > 100 µM
UACC-257 melanoma
  TGI: > 100 µM
MDA-MB-231 breast
  TGI: > 100 µM
SNB-19 CNS
  TGI: > 100 µM
BT-549 breast
  TGI: > 100 µM
HOP-92 NSCLC
  TGI: > 100 µM
M14 melanoma
  TGI: > 100 µM
RXF 393 renal
  TGI: > 100 µM
HCC-2998 colon
  TGI: > 100 µM

## O=C1c2cc(-c3ccccc3)ccc2-c2c1c1ccc([N+](=O)[O-])cc1c(=O)n2CCCBr
HOP-62 NSCLC
  GI50: > 30.2 µM
  TGI: > 50 µM
A498 renal
  GI50: 32.5 µM
  TGI: > 50 µM
UACC-257 melanoma
  GI50: > 50000 nM
  TGI: > 50 µM
MDA-MB-231 breast
  GI50: > 38900 nM
  TGI: > 50 µM
SNB-19 CNS
  GI50: > 36.8 µM
  TGI: > 50 µM
BT-549 breast
  GI50: > 50000 nM
  TGI: > 50 µM
HOP-92 NSCLC
  GI50: 17800 nM
  TGI: > 50 µM
M14 melanoma
  GI50: > 50000 nM
  TGI: > 50 µM
RXF 393 renal
  GI50: > 26300 nM
  TGI: > 43.7 µM
HCC-2998 colon
  GI50: > 50000 nM
  TGI: > 50 µM

## O=C(O)c1ccc([S-])cc1.[Au+].c1ccc(CN2[CH-]N(Cc3ccccc3)C(c3ccccc3)=C2c2ccccc2)cc1
HOP-62 NSCLC
  GI50: 0.416 µM
  TGI: 1.73 µM
A498 renal
  GI50: 0.246 µM
  TGI: 0.954 µM
UACC-257 melanoma
  GI50: 283 nM
  TGI: 1.2 µM
MDA-MB-231 breast
  GI50: 304 nM
  TGI: 1.18 µM
BT-549 breast
  GI50: 318 nM
  TGI: 1.42 µM
HOP-92 NSCLC
  GI50: 204 nM
  TGI: 0.806 µM
M14 melanoma
  GI50: 385 nM
  TGI: 1.61 µM
RXF 393 renal
  GI50: 305 nM
  TGI: 1.13 µM
HCC-2998 colon
  GI50: 536 nM
  TGI: 1.88 µM
